From patent publication US20200281873A1, “Adamantane or Bicyclic Monoterpenoid Derivatives for Use in the Treatment of Leishmaniasis” (Commissariat a l'Energie Atomique et aux Energies …, priority 2017, published 2020)
Read-outs that look alike come from different tables or passages of the source.

Tests used:
[1] = test system: Leishmania infantum axenic amastigotes; test: Evaluation on Leishmania donovani infantum axenic amastigotes (SYBR Green I); format: cell-based; conditions: Leishmania infantum; Table II; 3 different experiments, SYBR Green I method; read-out: IC50 axenic
Description: Protocol for Evaluation on Leishmania donovani infantum Axenic Amastigotes
Amastigote forms of the parasite were suspended to yield 10^7 parasitic cells mL^−1. The maximum final compound concentration used was 100 μM. Triplicates were used for each concentration. Cultures were incubated at 37° C. for 72 h in the dark and under a 5% CO2 atmosphere, then the viability of the amastigotes was assessed using the SYBR® Green I (Invitrogen, France) incorporation method. Parasite growth was determined by using SYBR® Green I, a dye with marked fluorescence enhancement upon contact with parasite DNA. Parasites were lysed and quantified by Direct PCR-Cell Genotyping without DNA isolation protocol (Euromedex, France). 10 μL of lysed parasite solution from each well was added to 40 μL of PCR-Cell reagent containing the SYBR® green I in a qPCR plate of 96 wells, and the contents were mixed. Fluorescence was measured with Mastercycler® ep realplex (Eppendorf, France). Measured fluorescence was compared to that from the range obtained with different parasite densities. The antileishmanial activity was expressed as IC50 in μM (concentration of drug inhibiting 50% of the parasite growth, comparatively to the controls treated with the excipient only).

[2] = test system: L. infantum intramacrophagic amastigotes; test: L. donovani infantum/RAW 264.7 macrophage model (intramacrophagic amastigotes, SYBR Green I); format: cell-based, Leishmania donovani infantum; conditions: Leishmania infantum, Macrophage
Description: Protocol for Evaluation on the L. donovani infantum/RAW 264.7 Macrophage Model (Intramacrophagic Amastigotes)
Mouse macrophage cells RAW 264.7 (ATCC) were seeded into a 96-well microplate and maintained in DMEM medium (Applied Biosystems, France) supplemented with 10% heat-inactivated fetal bovine serum in a 5% CO2 incubator at 37° C. for 24 h. Then, the medium was replaced with 100 μL fresh medium containing a suspension of 10^5 L. infantum amastigotes and the incubation time was 16 h. Then, extracellular parasites were eliminated from the medium and 100 μL fresh medium containing compound in various concentrations were added for a 48 h-incubation. Parasite growth was determined by using SYBR® Green I (Life technology, Fisher Scientific, France), a dye with marked fluorescence enhancement upon contact with DNA. The cell lysis suspension was diluted 1:1 in lysis buffer (10 mM NaCl, 1 mM Tris HCl pH8, 2.5 mM EDTA pH 8, 0.05% SDS, 0.01 mg/mL proteinase K and 10×SYBR Green I). Incorporation of SYBR Green I in DNA amplification was measured using the Master epRealplex cycler® (Eppendorf, France) according to the following program to increase the SYBR green incorporation: 90° C. for 1 min, decrease in temperature from 90° C. to 10° C. for 5 min with reading the fluorescence at 10° C. for 1 min and a new reading at 10° C. for 2 min. The EC50 as the concentration inhibiting the parasite growth by 50% was calculated by nonlinear regression using icestimator website 1.2 version: http://www.antimalarial-icestimator.net/MethodIntro.htm.

[3] = Incubation of VP343 with mouse hepatic microsomes (LC-MS); format: in vitro ADME; conditions: t = 45 min
Description: (§1) The metabolites' identification of VP343 was performed after incubation of the compound with hepatic microsomal preparations from mouse, dog and human origin. The assay was performed by mixing VP343 at 5; 4; 2 or 1 μM with CD1 mouse hepatic microsomes (reference MIC255030 Biopredic) at 0.5 mg/mL of protein, or Beagle dog hepatic microsomes (reference MIC257013 Biopredic) at 1 mg/mL of protein, or human hepatic microsomes (reference MIC159882 Biopredic) at 1 mg/mL of protein, together with 1 mM NADPH (reference N1630 Sigma Aldrich), a phase I reaction's cofactor, in a 0.1 M phosphate buffer pH 7.4. Samples were then incubated in a Thermomixer® (Eppendorf) at 37° C. and 300 rotations per minute. After 45 minutes of incubation, the reaction was stopped with acetonitrile (0.5 volume of the experimental incubation volume). The samples' supernatants were then separated from the microsomes by centrifugation at 20,000 g during 10 minutes (Sorvall ST 16, Thermo Fisher Scientific) before analysis by liquid chromatography coupled to mass spectrometry (LC-MS).
(§2) The analysis was performed in two steps: first, on a positive electrospray ionisation source using a Waters Acquity I class UPLC (Ultra Performance Liquid Chromatography) system coupled to a Waters triple quadrupole mass spectrometer (Xevo TQMS) and then on an orbitrap source using a Thermo Fisher UHPLC (Ultra High Performance Liquid Chromatography) system (Ultimate 3000) coupled to a Thermo Fisher orbitrap mass spectrometer (Q Exactive) to confirm the structures of the identified metabolites. VP343 and his metabolites were separated by the UPLC system with a six minutes gradient of acetonitrile containing 0.1% of formic acid in a BEH C18 column (1.7 μm, 2.1×50 mm, Waters) with a mobile phase flow rate of 0.6 mL/min.
(§3) The metabolization of VP343 was studied by incubating the compound with mouse, dog, and human hepatic microsomes. The concentration of VP343 in the microsomal preparations was measured at t=0 and at t=45 min by liquid chromatography-tandem mass spectrometry (LC-MS). […]

[4] = Incubation of VP343 with dog hepatic microsomes (LC-MS); format: in vitro ADME; conditions: for VP343 residual concentration: t = 45 min
Description: as §1, §2
The metabolization of VP343 was studied by incubating the compound with mouse, dog, and human hepatic microsomes. The concentration of VP343 in the microsomal preparations was measured at t=0 and at t=45 min by liquid chromatography-tandem mass spectrometry (LC-MS). About 5% to 50% of VP343 remained after 45 min of incubation with mouse microsomes according to experiments (Table VI and FIG. 3, respectively). About 5% of VP343 remained with dog microsomes. About 40 to 55% remained with human microsomes.

[5] = Incubation of VP343 with human hepatic microsomes (LC-MS); format: in vitro ADME; conditions: t = 45 min
Description: as §1, §2, §3

[6] = VP343 metabolites' identification by LC-MS in hepatic microsome supernatants; format: in vitro ADME; conditions: supernatants of mouse, dog and human hepatic microsomes incubated with VP343 for 45 min
Description: as §1, with “The samples' supernatants were then separated from the microsomes by centrifugation at 20,000 g during 10 minutes (Sorvall ST 16, Thermo Fisher Scientific) before analysis by liquid chromatography coupled to mass spectrometry (LC-MS).” left out
In each analytical system, the identification was performed in two steps. […] This means that, in a define range mass (m/z 250 to 450), each ion present in the sample should be detected. […] By adding collision energy, the products ions of the targeted metabolites were monitored to validate the supposed metabolite's structure obtained after injecting the sample in full scan mode.
To further investigate the number and nature of the metabolites, supernatants from mouse, dog and human hepatic microsomes incubated with VP343 for 45 min were analyzed by LC-MS (cf. protocol).

For `COc1ccc(Br)cc1CN(C)C12CC3CC(CC(C3)C1)C2` [VP343], the IC50 [1] was 9.29 µM, the IC50 ([2]; Table II, 3 different experiments, SYBR Green I method, read-out: IC50 intramacrophagic) was 0.04 µM and the IC50 ([2]; cf. Table II, read-out: IC50 (intramacrophage amastigotes)) was 0.04 µM. For the same molecule, the VP343 residual concentration ([3]; initial concentration 1 μM) was 0.08 µM, the VP343 residual concentration ([3]; initial concentration 2 μM) was 0.09 µM and the VP343 residual concentration ([3]; initial concentration 4 μM) was 0.25 µM. For the same molecule, the “VP343 remaining after incubation” value ([4]; 45 min) was “About 5%”, the VP343 residual concentration ([4]; initial concentration 1 μM) was 0.03 µM and the VP343 residual concentration ([4]; initial concentration 2 μM) was 0.09 µM. For the same molecule, the VP343 residual concentration ([4]; initial concentration 4 μM) was 0.12 µM, the VP343 residual concentration ([5]; initial concentration 1 μM) was 0.41 µM and the VP343 residual concentration ([5]; initial concentration 2 μM) was 1.08 µM. For the same molecule, the VP343 residual concentration ([5]; initial concentration 4 μM) was 1.62 µM and the “Number of metabolites detected” value [6] was 11.
